In patent publication US9775904B2 (priority 2014, dated 2017):
Read-outs that look alike come from different tables or passages of the source.

Legend:
[1] = molecular target: T1, human glucagon receptor (hGlucagon R) (Homo sapiens, UniProt P47871); test: cAMP response of HEK-293 cells expressing human glucagon receptor (HTRF); type: cell-based; details: Table 6
T1 construct: expressed in transfected cells
Experimental: (§1) cAMP content of cells was determined using a kit from Cisbio Corp. (cat. no. 62AM4PEC) based on HTRF (Homogenous Time Resolved Fluorescence). For preparation, cells were split into T175 culture flasks and grown overnight to near confluency in medium (DMEM/10% FBS). Medium was then removed and cells washed with PBS lacking calcium and magnesium, followed by proteinase treatment with accutase (Sigma-Aldrich cat. no. A6964). Detached cells were washed and resuspended in assay buffer (1×HBSS; 20 mM HEPES, 0.1% BSA, 2 mM IBMX) and cellular density determined. They were then diluted to 400000 cells/ml and 25 μl-aliquots dispensed into the wells of 96-well plates. For measurement, 25 μl of test compound in assay buffer was added to the wells, followed by incubation for 30 minutes at room temperature.

[2] = Pharmacokinetic testing in mice, s.c.; type: in vivo; details: mouse, plasma, sc, 1 mg/kg s.c.
Experimental: (§2) Mice were dosed 1 mg/kg subcutaneously (s.c.). The mice were sacrified and blood samples were collected after 0.25, 0.5, 1, 2, 4, 8, 16 and 24 hours post application. Plasma samples were analyzed after protein precipitation via liquid chromatography mass spectrometry (LC/MS). PK parameters and half-life were calculated using WinonLin Version 5.2.1 (non-compartment model).

[3] = molecular target: T2, human GIP receptor (hGIP-R) (Homo sapiens, UniProt P48546); test: cAMP response of HEK-293 cells expressing human GIP receptor (HTRF); type: cell-based; details: Table 6; read-out: EC50 hGIP-R
T2 construct: expressed in transfected cells
T2 sequence (P48546 22-466): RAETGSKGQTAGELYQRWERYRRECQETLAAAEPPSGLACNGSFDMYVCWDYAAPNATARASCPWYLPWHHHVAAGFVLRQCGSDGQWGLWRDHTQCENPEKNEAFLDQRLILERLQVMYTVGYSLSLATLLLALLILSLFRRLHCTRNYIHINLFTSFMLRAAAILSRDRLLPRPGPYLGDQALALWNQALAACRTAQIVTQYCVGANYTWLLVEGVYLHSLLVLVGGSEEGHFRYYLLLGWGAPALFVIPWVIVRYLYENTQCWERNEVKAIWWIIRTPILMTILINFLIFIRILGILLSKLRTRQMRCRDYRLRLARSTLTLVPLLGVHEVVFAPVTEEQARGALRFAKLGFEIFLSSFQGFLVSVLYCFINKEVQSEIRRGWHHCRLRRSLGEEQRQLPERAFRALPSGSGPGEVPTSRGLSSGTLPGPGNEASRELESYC
Experimental: as §1

[4] = Chronic effect on body weight and body fat in female DIO C57BL/6 mice, 4 weeks; type: in vivo; details: 50 μg/kg bid s.c.; for Day on which significant body weight decrease begins / Daily body weight compared to vehicle DIO control mice: 4 weeks; for Day on which significant body weight decrease begins: continuing through the end of the study; for Daily body weight compared to vehicle DIO control mice: p>0.0001 by the end of the study (so in the source); for Body fat change / Overall weight change: DIO mice, 4-week treatment, mean ± SEM; for Body fat change: NMR
Experimental: (§3) C57BL/6 Harlan mice are housed in groups in a specific pathogen-free barrier facility on a 12 h light/dark cycle with free access to water and standard or high-fat diet. After prefeeding on high-fat diet, mice are stratified to treatment groups (n=8), so that each group has similar mean body weight. An age-matched group with ad-libitum access to standard chow is included as standard control group. Before the experiment, mice are subcutaneously (s.c.) injected with vehicle solution and weighed for 3 days to acclimate them to the procedures.
2) Chronic effect on body weight in female DIO mice: mice are treated once (s.c. in evening hours) or twice daily (s.c. in the morning and in the evening), respectively, at the beginning and the end of the light phase with either vehicle or exendin-4 derivatives for 4 weeks. Body weight is recorded daily. Two days before start of treatment and on day 26, total fat mass is measured by nuclear magnetic resonance (NMR).
(§4) Statistical analyses are performed with Everstat 6.0 by repeated measures two-way ANOVA and Dunnetts post-hoc analyses (glucose profile) and 1-way-ANOVA, followed by Dunnetts post-hoc test (body weight, body fat). Differences versus vehicle-treated DIO control mice are considered statistically significant at the p<0.05 level.
Body weight was recorded daily, and body fat content was determined before the start and after 4 weeks of treatment. […] These changes resulted from a decrease in body fat, as shown by the absolute changes in body fat content (Table 10, FIG. 3).
Body weight was recorded daily, and body fat content was determined before the start and after 4 weeks of treatment.

[5] = Pharmacokinetic testing in Göttinger minipigs, s.c.; type: in vivo; details: female, minipig, plasma, sc, Mini pigs, 0.1 mg/kg s.c.
Experimental: as §2, with “Female Göttinger minipigs were” for “Mice were”, “dosed 0.1” for “dosed 1”, “(s.c.). Blood” for “(s.c.). The mice were sacrified and blood”, “8, 24, 32, 48, 56” for “8, 16”, “and 72” for “and 24”

[6] = molecular target: T3, human GLP-1 receptor (hGLP-1 R) (Homo sapiens, UniProt P43220); test: cAMP response of HEK-293 cells expressing human GLP-1 receptor (HTRF); type: cell-based; details: Table 6
T3 construct: expressed in transfected cells
T3 sequence (P43220 24-463): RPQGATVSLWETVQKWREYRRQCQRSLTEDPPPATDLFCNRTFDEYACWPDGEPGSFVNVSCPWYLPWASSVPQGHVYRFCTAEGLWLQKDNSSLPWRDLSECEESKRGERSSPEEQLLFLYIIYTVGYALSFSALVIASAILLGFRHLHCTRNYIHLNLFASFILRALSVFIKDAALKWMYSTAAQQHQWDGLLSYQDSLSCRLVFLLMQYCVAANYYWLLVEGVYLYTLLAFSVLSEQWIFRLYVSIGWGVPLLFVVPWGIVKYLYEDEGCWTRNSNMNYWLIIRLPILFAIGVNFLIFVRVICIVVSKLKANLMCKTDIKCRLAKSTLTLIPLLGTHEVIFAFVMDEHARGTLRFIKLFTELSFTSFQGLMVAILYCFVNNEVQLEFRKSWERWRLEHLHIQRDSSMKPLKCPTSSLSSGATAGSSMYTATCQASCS
Experimental: as §1

[7] = Acute effect on blood glucose in fed female DIO C57BL/6 mice; type: in vivo; details: 50 μg/kg s.c.; t=1, 2, 3, 4, 6 and 24 h post dosing; p<0.0001
Experimental: as §3
1) Acute effect on blood glucose in fed female DIO mice: initial blood samples are taken just before first administration (s.c.) of vehicle (phosphate buffer solution) or the exendin-4 derivatives (dissolved in phosphate buffer), respectively. The volume of administration is 5 mL/kg. The animals have access to water and their corresponding diet during the experiment. Blood glucose levels are measured at t=0 h, t=1 h, t=2 h, t=3 h, t=4 h, t=6 h and t=24 h (method: Accu-Check glucometer). Blood sampling is performed by tail incision without anaesthesia.
as §4
At predefined time points, more blood samples were taken to measure blood glucose and generate the blood glucose profile over 24 h.

[8] = Solubility testing in buffer (HPLC-UV); type: physicochemical
Experimental: Prior to the testing of solubility and stability of a peptide batch, its purity (HPLC-UV) was determined.
. Therefore, solutions from solid samples were prepared in different buffer systems with a concentration of 10 mg/mL compound based on the previously determined % purity. HPLC-UV was performed after 2 h of gentle agitation from the supernatant, which was obtained by 20 min of centrifugation at 4500 rpm.
[…]. This analysis also served as starting point (t0) for the stability testing.

[9] = pH 4.5, target concentration 10 mg/ml, read-out: solubility [mg/ml] pH 4.5
[10] = pH 7.4, target concentration 10 mg/ml, read-out: solubility [mg/ml] pH 7.4

T1 sequence (P47871 26-477): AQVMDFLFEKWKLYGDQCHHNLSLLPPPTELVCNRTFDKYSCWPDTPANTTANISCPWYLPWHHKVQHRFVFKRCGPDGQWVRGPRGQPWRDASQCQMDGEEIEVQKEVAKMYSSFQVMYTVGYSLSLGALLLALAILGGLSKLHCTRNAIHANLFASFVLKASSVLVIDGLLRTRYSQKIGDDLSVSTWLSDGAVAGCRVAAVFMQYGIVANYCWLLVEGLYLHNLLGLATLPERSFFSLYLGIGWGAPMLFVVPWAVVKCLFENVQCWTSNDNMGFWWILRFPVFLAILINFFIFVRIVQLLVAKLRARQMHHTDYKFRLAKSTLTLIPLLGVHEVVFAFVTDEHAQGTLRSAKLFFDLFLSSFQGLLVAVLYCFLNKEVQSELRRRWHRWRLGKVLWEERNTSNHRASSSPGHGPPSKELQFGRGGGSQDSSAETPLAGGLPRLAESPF

SMILES	EC50 [1]	Cmax [2]	half-life [2]	EC50 [3]	Day on which significant body weight decrease begins [4]	Daily body weight compared to vehicle DIO control mice [4]	Body fat change [4]	Overall weight change [4]	Cmax [5]	half-life [5]	EC50 [6]	Blood glucose compared to DIO control mice [7]	solubility at 2 h [8, 9]	solubility at 2 h [8, 10]
CCCCCCCCCCCCCCCC(=O)N[C@@H](CCC(=O)N[C@@H](CCC(=O)NCCCC[C@H](NC(=O)[C@H](CCC(N)=O)NC(=O)[C@H](CCCCN)NC(=O)[C@H](CO)NC(=O)[C@H](CC(C)C)NC(=O)[C@H](CC(=O)O)NC(=O)[C@H](CO)NC(=O)[C@@H](NC(=O)[C@H](Cc1ccccc1)NC(=O)[C@@H](NC(=O)CNC(=O)[C@H](CCC(N)=O)NC(=O)C(C)(C)NC(=O)[C@@H](N)Cc1c[nH]cn1)[C@@H](C)O)[C@@H](C)O)C(=O)N[C@@H](CC(=O)O)C(=O)N[C@@H](CCC(=O)O)C(=O)N[C@@H](CCC(N)=O)C(=O)N[C@@H](CCCNC(=N)N)C(=O)N[C@@H](C)C(=O)N[C@@H](CCCCN)C(=O)N[C@@H](CC(C)C)C(=O)N[C@@H](Cc1ccccc1)C(=O)N[C@H](C(=O)N[C@@H](CCC(=O)O)C(=O)N[C@@H](Cc1c[nH]c2ccccc12)C(=O)N[C@@H](CC(C)C)C(=O)NC(C)(C)C(=O)N[C@@H](C)C(=O)N[C@H](C)C(=O)NCC(=O)N1CCC[C@H]1C(=O)N[C@@H](CO)C(=O)N[C@@H](CO)C(=O)NCC(=O)N[C@@H](C)C(=O)N1CCC[C@H]1C(=O)N1CCC[C@H]1C(=O)N1CCC[C@H]1C(=O)N[C@@H](CO)C(N)=O)[C@@H](C)CC)C(=O)O)C(=O)O [SEQ ID NO: 7, H-Aib-Q-G-T-F-T-S-D-L-S-K-Q-K(γE-γE-x53)-D-E-Q-R-A-K-L-F-I-E-W-L-Aib-A-dAla-G-P-S-S-G-A-P-P-P-S-NH2]	0.101 nM	5510 ng/mL	3.1 h	7.62 nM	7 days	statistically significant decrease	-3.73 ± 0.8 g	-5.49 ± 0.9 g	667 ng/mL	29 h	0.0034 nM	significant decrease in blood glucose	> 8 mg/mL	> 8 mg/mL
CCCCCCCCCCCCCCCC(=O)N[C@@H](CCC(=O)N[C@@H](CCC(=O)NCCCC[C@H](NC(=O)[C@H](CCC(N)=O)NC(=O)[C@H](CCCCN)NC(=O)[C@H](CO)NC(=O)[C@H](CC(C)C)NC(=O)[C@H](CC(=O)O)NC(=O)[C@H](CO)NC(=O)[C@@H](NC(=O)[C@H](Cc1ccccc1)NC(=O)[C@@H](NC(=O)CNC(=O)[C@H](CCC(N)=O)NC(=O)C(C)(C)NC(=O)[C@@H](N)Cc1c[nH]cn1)[C@@H](C)O)[C@@H](C)O)C(=O)N[C@@H](CC(=O)O)C(=O)N[C@@H](CCC(=O)O)C(=O)N[C@@H](CCC(N)=O)C(=O)N[C@@H](CCCNC(=N)N)C(=O)N[C@@H](C)C(=O)N[C@@H](CCCCN)C(=O)N[C@@H](CC(C)C)C(=O)N[C@@H](Cc1ccccc1)C(=O)N[C@H](C(=O)N[C@@H](CCC(=O)O)C(=O)N[C@@H](Cc1c[nH]c2ccccc12)C(=O)N[C@@H](CC(C)C)C(=O)NC(C)(C)C(=O)N[C@@H](C)C(=O)NCC(=O)NCC(=O)N1CCC[C@H]1C(=O)N[C@@H](CO)C(=O)N[C@@H](CO)C(=O)NCC(=O)N[C@@H](C)C(=O)N1CCC[C@H]1C(=O)N1CCC[C@H]1C(=O)N1CCC[C@H]1C(=O)N[C@@H](CO)C(N)=O)[C@@H](C)CC)C(=O)O)C(=O)O [SEQ ID NO: 8, H-Aib-Q-G-T-F-T-S-D-L-S-K-Q-K(γE-γE-x53)-D-E-Q-R-A-K-L-F-I-E-W-L-Aib-A-G-G-P-S-S-G-A-P-P-P-S-NH2]	0.0281 nM	4360 ng/mL	3.8 h	2.14 nM	5 days	reduced body weight significantly	-3.81 ± 0.6 g	-5.38 ± 0.5 g	476 ng/mL	18.1 h	0.0023 nM	significant decrease in blood glucose	> 8 mg/mL	> 8 mg/mL
